Results taken from publication PMC10936776, “Structural and functional characterization of AfsR, an SARP family transcriptional activator of antibiotic biosynthesis in Streptomyces” (PLOS Biology, 2024).

Experiments:
[1] = molecular target: T1, phosphorylated AfsR (phos-AfsR) (Streptomyces coelicolor, UniProt P25941); assay: in vitro MangoIII transcription assay after preincubation; assay type: biochemical; conditions: 500 nM phosphorylated AfsR, 1 mM ATPγS preincubation; activator
T1 construct: full-length, 993 residues, pET28a (His-tagged), E. coli BL21(DE3); dephosphorylated, then phosphorylated in vitro by AfsKΔC (pS22, pT337, pS391, pT506, pS953 by MS), SEC
T1 sequence (P25941 whole entry): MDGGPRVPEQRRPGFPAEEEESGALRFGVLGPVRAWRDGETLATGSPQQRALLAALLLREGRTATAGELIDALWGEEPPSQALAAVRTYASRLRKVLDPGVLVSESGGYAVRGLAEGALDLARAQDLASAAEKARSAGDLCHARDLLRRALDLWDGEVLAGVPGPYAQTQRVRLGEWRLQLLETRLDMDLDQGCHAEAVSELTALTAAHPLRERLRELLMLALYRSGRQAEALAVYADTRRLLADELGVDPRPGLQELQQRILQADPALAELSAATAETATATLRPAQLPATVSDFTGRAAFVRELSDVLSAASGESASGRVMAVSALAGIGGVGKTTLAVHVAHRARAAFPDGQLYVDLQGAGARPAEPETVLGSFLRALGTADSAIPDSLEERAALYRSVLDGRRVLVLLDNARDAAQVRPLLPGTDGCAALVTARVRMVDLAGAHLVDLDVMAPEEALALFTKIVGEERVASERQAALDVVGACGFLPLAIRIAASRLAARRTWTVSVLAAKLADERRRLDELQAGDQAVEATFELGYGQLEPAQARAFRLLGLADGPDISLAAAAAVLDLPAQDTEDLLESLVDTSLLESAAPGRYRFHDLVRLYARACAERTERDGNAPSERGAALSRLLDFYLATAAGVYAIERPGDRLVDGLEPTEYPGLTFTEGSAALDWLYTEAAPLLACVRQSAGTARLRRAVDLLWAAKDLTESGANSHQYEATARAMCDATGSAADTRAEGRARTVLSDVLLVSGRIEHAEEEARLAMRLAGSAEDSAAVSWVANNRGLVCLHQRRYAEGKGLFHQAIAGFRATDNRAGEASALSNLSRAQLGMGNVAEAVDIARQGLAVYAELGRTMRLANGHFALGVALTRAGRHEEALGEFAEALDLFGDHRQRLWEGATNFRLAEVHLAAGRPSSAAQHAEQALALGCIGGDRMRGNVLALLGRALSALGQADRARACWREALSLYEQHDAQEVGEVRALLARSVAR

[2] = molecular target: T2, AfsR (dephosphorylated AfsR) (Streptomyces coelicolor, UniProt P25941); assay: as above; assay type: biochemical; conditions: 500 nM dephosphorylated AfsR, 1 mM ATPγS preincubation 10 min 30 °C, RNAP-σHrdB, RbpA, CarD; activator
T2 construct: full-length, 993 residues, pET28a (His-tagged), E. coli BL21(DE3), Ni-NTA and SEC; wild type treated with lambda phosphatase (E. coli protein carries pT337); mainly monomer
T2 sequence (P25941 whole entry): as above

Nc1ncnc2c1ncn2[C@@H]1O[C@H](COP(=O)(O)OP(=O)(O)OP(O)(O)=S)[C@@H](O)[C@H]1O [ATPγS]
transcription activation [1]: exhibits partial activation in response to non-hydrolysable ATPγS | transcription activation [2]: comparable effect of preincubation with a non-hydrolyzable ATP analogue, ATPγS
